Laboratory results reported in patent US4283539A, “Isoquinoline acetic acids” (Pfizer Inc., priority 1979, dated 1981).
Structures can show the parent of a compound that is named as a salt.

Target: T1, aldose reductase (Bos taurus, UniProt P16116)
T1 construct: partially purified aldose reductase enzyme obtained from calf lens; from tissue; host or cells: calf lens
Test: Inhibition of aldose reductase enzyme activity (procedure of U.S. Pat. No. 3,821,383, based on Hayman et al.)
Format: biochemical
Settings: partially purified aldose reductase from calf lens; for inhibition at 100 µM: 10^-4 M; for inhibition at 10 µM: 10^-5 M
From the text: The activity of the compounds of this invention as aldose reductase inhibitors and as agents for the treatment of diabetic cataracts may be determined by standard pharmacological tests. Such tests include, for example, measuring their ability to inhibit the enzyme activity of isolated aldose reductase, following the general procedure described in U.S. Pat. No. 3,821,383 and based on the procedure of Hayman et al., J. Biol. Chem. 240, 877 (1965). Based on the activity of the compounds of this invention in this test, it is expected that the compounds will also show activity as aldose reductase inhibitors when tested at suitable concentrations in other standard pharmaceutical tests, for example those measuring their ability to reduce or inhibit sorbitol accumulation in the sciatic nerve of acutely streptozotocinized (i.e. diabetic) rats; measuring their ability to reverse already-elevated sorbitol level in the sciatic nerve and lens of chronic streptozotocin-induced diabetic rats; measuring their ability to prevent or inhibit galacticol formation in the lens of acutely galatosemic rats; and measuring their ability to delay cataract formation and reduce the severity of lens opacities in chronic galactosemic rats.
The compounds produced in Examples 4, 7, 8, 9 and 10 were tested for their ability to reduce or inhibit aldose reductase enzyme activity, following the procedure described in U.S. Pat. No. 3,821,383 and based on the procedure of Hayman et. al., Journal of Biological Chemistry, 240, 877 (1965). The substrate employed was partially purified aldose reductase enzyme obtained from calf lens. The results obtained with each compound at a concentration of 10^-4 M and 10^-5 M are expressed as percent inhibition of enzyme activity.

Structure (SMILES): Cc1nc(N(C)Cc2ccc(Cl)cc2)c2ccccc2c1CC(=O)O [Example 10, 1-(N-4-Chlorobenzyl-N-methyl-amino)-3-methyl-4-isoquinoline Acetic Acid Hydrochloride]
- inhibition at 100 µM: 99%
- inhibition at 10 µM: 97%

Structure (SMILES): Cc1c(CC(=O)O)c2ccccc2c(=O)n1OCc1ccc(Cl)c(Cl)c1 [Example 4, 2-(3,4-Dichlorobenzyloxy)-1,2-dihydro-3-methyl-1-oxo-4-isoquinoline Acetic Acid]
- inhibition at 100 µM: 90%
- inhibition at 10 µM: 77%

Structure (SMILES): Cc1c(CC(=O)O)c2ccccc2c(=O)n1Cc1ccc(Cl)c(Cl)c1 [Example 7, 2-(3,4-Dichlorobenzyl)-1,2-dihydro-3-methyl-1-oxo-4-isoquinoline Acetic Acid]
- inhibition at 100 µM: 27%

Structure (SMILES): Cc1nc(OCc2ccc(Cl)c(Cl)c2)c2ccccc2c1CC(=O)O [Example 8, 1-(3,4-Dichlorobenzyloxy)-3-methyl-4-isoquinoline Acetic Acid]
- inhibition at 100 µM: 83%
- inhibition at 10 µM: 95%

Structure (SMILES): Cc1nc(Oc2ccc(Cl)cc2)c2ccccc2c1CC(=O)O [Example 9, 1-(4-Chlorophenoxy)-3-methyl-4-isoquinoline Acetic Acid]
- inhibition at 100 µM: 95%
- inhibition at 10 µM: 91%
